The assay concerns P388 leukemia ip, CD2F1 mice, survival T/C. The assay can be described thus: NCI In Vivo Anticancer Drug Screen. Data for tumor model P388 Leukemia (intraperitoneal) in CD2F1 (CDF1) mice. The settings on record: endpoint: median survival time, higher = longer survival. In outline:
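Mice carrying the transplanted tumor received test compound or vehicle. Survival was recorded in each group, and the value is the treated-group measurement divided by that of the vehicle-treated control group.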

Where [1] appears, read: dose: 12.5 mg/kg/injection, schedule: Q01DX009 (ip), vehicle: saline.
Where [2] appears, read: dose: 50.0 mg/kg/injection, schedule: Q01DX009 (ip), vehicle: saline with Tween-80.
[3] abbreviates: dose: 100.0 mg/kg/injection, schedule: Q01DX009 (ip), vehicle: saline with Tween-80.
Setting [4] is: dose: 100.0 mg/kg/injection, schedule: Q04DX003 (ip), vehicle: saline with Tween-80.
Where [5] appears, read: dose: 200.0 mg/kg/injection, schedule: Q01DX009 (ip), vehicle: saline with Tween-80.
Setting [6] is: dose: 200.0 mg/kg/injection, schedule: Q04DX003 (ip), vehicle: saline with Tween-80.
The mark [7] stands for this setting: dose: 50.0 mg/kg/injection, schedule: Q01DX009 (ip), vehicle: Klucel (hydroxypropylcellulose) (HPC).
Where [8] appears, read: dose: 100.0 mg/kg/injection, schedule: Q01DX009 (ip), vehicle: Klucel (hydroxypropylcellulose) (HPC).
The mark [9] stands for this setting: dose: 50.0 mg/kg/injection, schedule: Q01DX009 (ip), vehicle: saline.
Where [10] appears, read: dose: 25.0 mg/kg/injection, schedule: Q01DX009 (ip), vehicle: Klucel (hydroxypropylcellulose) (HPC).
[11] abbreviates: dose: 100.0 mg/kg/injection, schedule: Q04DX002 (ip), vehicle: Klucel (hydroxypropylcellulose) (HPC).
Where [12] appears, read: dose: 400.0 mg/kg/injection, schedule: Q04DX002 (ip), vehicle: Klucel (hydroxypropylcellulose) (HPC).

Values joined by “and” are separate entries in the source; they are usually repeats but may differ in a detail not shown here. Equal values may be shown once. Inconclusive results and toxic doses are left out.

In the case of `COc1cc(NS(C)(=O)=O)ccc1Nc1c2ccc(Cl)cc2nc2c(OC)cccc12`, the T/C (dose: 3.13 mg/kg/injection, schedule: Q01DX009 (ip), vehicle: saline) is 166 % of control; the T/C (dose: 6.25 mg/kg/injection, schedule: Q01DX009 (ip), vehicle: saline) is 195 % of control; the T/C (dose: 6.25 mg/kg/injection, schedule: Q04DX003 (ip), vehicle: saline with Tween-80) was 154 % of control; the T/C (dose: 8.25 mg/kg/injection, schedule: Q04DX003 (ip), vehicle: saline with Tween-80) was 179 % of control; the T/C under setting [1] is 208 % of control; the T/C (dose: 12.5 mg/kg/injection, schedule: Q04DX003 (ip), vehicle: saline with Tween-80) is 170 % of control and 204 % of control. Where the note is “dose: 18.75 mg/kg/injection, schedule: Q04DX003 (ip), vehicle: saline with Tween-80”, the T/C was 229 % of control.
On to `Cc1c(N)nc([C@H](CC(N)=O)NC[C@H](N)C(N)=O)nc1C(=O)N[C@H](C(=O)N[C@H](C)[C@@H](O)CC(=O)N[C@H](C(=O)NC(O[C@@H]1O[C@@H](C)[C@@H](N)[C@@H](O)[C@H]1O)C(O)c1nc(-c2nc(C(=O)NCCCCN)cs2)cs1)[C@@H](C)O)[C@@H](O[C@@H]1O[C@@H](CO)[C@@H](O)[C@H](O)[C@@H]1O[C@H]1O[C@H](CO)[C@@H](O)[C@H](OC(N)=O)[C@@H]1O)c1c[nH]cn1` (some centres undefined), for which the T/C (dose: 0.5 mg/kg/injection, schedule: Q01DX009 (ip), vehicle: water) was 101 % of control; the T/C (dose: 1.0 mg/kg/injection, schedule: Q01DX009 (ip), vehicle: water) was 98 % of control; the T/C (dose: 2.0 mg/kg/injection, schedule: Q01DX009 (ip), vehicle: water) was 124 % of control; the T/C (dose: 4.0 mg/kg/injection, schedule: Q01DX009 (ip), vehicle: water) was 95 % of control; the T/C (dose: 8.0 mg/kg/injection, schedule: Q01DX009 (ip), vehicle: water) was 123 % of control.
For `CCCCCCC1=NC(C)(C)CO1`, the T/C is, setting by setting: under setting [2], 100 % of control; (dose: 50.0 mg/kg/injection, schedule: Q04DX003 (ip), vehicle: saline with Tween-80) 100 % of control; under setting [3], 104 % of control; under setting [4], 100 % of control; under setting [5], 100 % of control; under setting [6], 109 % of control.
Turning to `CC(C)C1CCC2(C)CCC3(C)CCC12O3` (centres undefined), the T/C was 108 % of control (dose: 12.0 mg/kg/injection, schedule: Q01DX009 (ip), vehicle: Klucel (hydroxypropylcellulose) (HPC)); 98 % of control (dose: 24.0 mg/kg/injection, schedule: Q01DX009 (ip), vehicle: Klucel (hydroxypropylcellulose) (HPC)); 108 % of control (dose: 48.0 mg/kg/injection, schedule: Q01DX009 (ip), vehicle: Klucel (hydroxypropylcellulose) (HPC)); 108 % of control (dose: 96.0 mg/kg/injection, schedule: Q01DX009 (ip), vehicle: Klucel (hydroxypropylcellulose) (HPC)).
Regarding `Clc1ccccc1C=NCC1CCC(CN=Cc2ccccc2Cl)CC1` (centres undefined), the T/C was 99 % of control (dose: 6.25 mg/kg/injection, schedule: Q01DX009 (ip), vehicle: saline with Tween-80); 101 % of control (dose: 12.5 mg/kg/injection, schedule: Q01DX009 (ip), vehicle: saline with Tween-80); 100 % of control (dose: 25.0 mg/kg/injection, schedule: Q01DX009 (ip), vehicle: saline with Tween-80); 116 % of control under setting [2].
`CCn1c(=O)c2cn[nH]c2n(CC)c1=O`: the T/C by setting is: under setting [7], 108 % of control; under setting [8], 104 % of control.
In the case of `CCCCCCCC/C=C\CCCCCCCCN1CN=C(N)N(C#N)C1`, the T/C runs as follows: under setting [4], 101 % of control; under setting [6], 100 % of control; (dose: 400.0 mg/kg/injection, schedule: Q04DX003 (ip), vehicle: saline with Tween-80) 103 % of control.
As to `N/C(=N\O)c1ccc2oc(/C=C/c3cc4cc(/C(N)=N\O)ccc4o3)cc2c1`, the T/C was 100 % of control under setting [9]; 97 % of control (dose: 100.0 mg/kg/injection, schedule: Q01DX009 (ip), vehicle: saline); 91 % of control (dose: 200.0 mg/kg/injection, schedule: Q01DX009 (ip), vehicle: saline).
On to `O=c1[nH]cnc2ccc3cn[nH]c3c12`, for which the T/C reads like this: (dose: 50.0 mg/kg/injection, schedule: Q01DX005 (ip), vehicle: saline with Tween-80) 100 % of control; (dose: 100.0 mg/kg/injection, schedule: Q01DX005 (ip), vehicle: saline with Tween-80) 105 % of control; (dose: 200.0 mg/kg/injection, schedule: Q01DX005 (ip), vehicle: saline with Tween-80) 106 % of control.
For the molecule `OCCCCP12(OC(C(F)(F)F)(C(F)(F)F)c3ccccc31)OC(C(F)(F)F)(C(F)(F)F)c1ccccc12`, the T/C was 102 % of control under setting [7]; 100 % of control under setting [8]; 102 % of control (dose: 200.0 mg/kg/injection, schedule: Q01DX009 (ip), vehicle: Klucel (hydroxypropylcellulose) (HPC)).
`COC(=O)C1C(O)C(C)C(O)OC1C(C)C(O)C(C)/C=C\C=C(/C)C(=O)Nc1c(C)c(OC(C)=O)c2c(c1O)C(=O)C(C)=C1OCOC(/C(C)=C/C(C)=O)=C12` (centres undefined): the T/C is, setting by setting: (dose: 12.5 mg/kg/injection, schedule: Q01DX009 (ip), vehicle: Klucel (hydroxypropylcellulose) (HPC)) 103 % of control; (dose: 25.0 mg/kg/injection, schedule: Q01DX005 (ip), vehicle: Klucel (hydroxypropylcellulose) (HPC)) 106 % of control; under setting [10], 108 % of control; (dose: 50.0 mg/kg/injection, schedule: Q01DX005 (ip), vehicle: Klucel (hydroxypropylcellulose) (HPC)) 113 % of control; under setting [7], 112 % of control; (dose: 100.0 mg/kg/injection, schedule: Q01DX005 (ip), vehicle: Klucel (hydroxypropylcellulose) (HPC)) 113 % of control. Further, the T/C reads like this: under setting [8], 108 % of control; (dose: 200.0 mg/kg/injection, schedule: Q01DX005 (ip), vehicle: Klucel (hydroxypropylcellulose) (HPC)) 118 % of control.
Regarding `[N-]=[N+]=Nc1ccccc1C(=O)Nc1ccccc1C(N)=O`, the T/C by setting is: under setting [11], 101 % of control; (dose: 200.0 mg/kg/injection, schedule: Q04DX002 (ip), vehicle: Klucel (hydroxypropylcellulose) (HPC)) 104 % of control; under setting [12], 104 % of control.
Turning to `O=S(=O)(c1ccccc1)C(SC(=S)Sc1ccccc1)Sc1ccccc1` (centres undefined), the T/C under setting [1] was 104 % of control; the T/C (dose: 25.0 mg/kg/injection, schedule: Q01DX009 (ip), vehicle: saline) is 107 % of control; the T/C under setting [2] is 114 % of control; the T/C under setting [9] was 96 % of control.
On to `CCCCCCCCCCCCCCCc1cccc(O)c1C(=O)O`, for which the T/C is 106 % of control (dose: 12.5 mg/kg/injection, schedule: Q01DX005 (ip), vehicle: distilled water + Tween-80); 113 % of control (dose: 20.0 mg/kg/injection, schedule: Q01DX009 (ip), vehicle: saline with Tween-80); 102 % of control (dose: 25.0 mg/kg/injection, schedule: Q01DX005 (ip), vehicle: distilled water + Tween-80); 111 % of control (dose: 40.0 mg/kg/injection, schedule: Q01DX009 (ip), vehicle: saline with Tween-80); 107 % of control (dose: 50.0 mg/kg/injection, schedule: Q01DX005 (ip), vehicle: distilled water + Tween-80); 109 % of control (dose: 80.0 mg/kg/injection, schedule: Q01DX009 (ip), vehicle: saline with Tween-80). For the same molecule, the T/C (dose: 100.0 mg/kg/injection, schedule: Q01DX005 (ip), vehicle: distilled water + Tween-80) was 117 % of control.
Consider `CN/N=C/c1cc(=O)n(C)c(=O)n1C`, for which the T/C is 101 % of control under setting [2], 101 % of control under setting [3] and 99 % of control under setting [5].
Take `COc1cc2c[n+](C)c3c(c2cc1OC)Cc1c-3ccc(O)c1OC`: the T/C (dose: 100.0 mg/kg/injection, schedule: Q01DX001 (ip), vehicle: Klucel (hydroxypropylcellulose) (HPC)) was 116 % of control.
With `COc1cc(O)c(C(C)c2ccccc2)cc1N=NC(N)=O` (centres undefined), the T/C is 96 % of control (dose: 6.25 mg/kg/injection, schedule: Q01DX005 (ip), vehicle: saline with Tween-80); 90 % of control (dose: 12.5 mg/kg/injection, schedule: Q01DX005 (ip), vehicle: saline with Tween-80); 89 % of control (dose: 25.0 mg/kg/injection, schedule: Q01DX005 (ip), vehicle: saline with Tween-80).
With `Cc1cc(=O)n(C)c2ccc(N)cc12`, the T/C was 101 % of control under setting [10], 100 % of control under setting [7] and 101 % of control under setting [8].
For the molecule `O=Cc1c(-c2ccc(Cl)cc2)nc2n1CCS2`, the T/C under setting [11] is 101 % of control and the T/C under setting [12] was 104 % of control.

The values above are taken from PubChem BioAssay AID330 (DTP/NCI, 2004).
